“And” between values parts separate entries of the source, which are not always exact repeats. Identical values can stand only once. Inconclusive results and toxic doses are left out.

The assay deals with CD2F1 mice, L1210 leukemia ip, survival T/C. Nature of the assay: NCI In Vivo Anticancer Drug Screen. Data for tumor model L1210 Leukemia (intraperitoneal) in CD2F1 (CDF1) mice. The conditions noted are these: higher = longer survival. In short, it runs like this:
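Compound-dosed mice with transplantable tumor versus matched vehicle controls; endpoint ratio T/C reported.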

Consider `CCN(CC)CCNc1ccc(C)c2sc3ccccc3c(=O)c12`, for which the T/C is 103 % of control (endpoint: mean survival time, dose: 7.5 mg/kg/injection, schedule: Q01DX005 (ip), vehicle: water); 104 % of control (endpoint: mean survival time, dose: 15.0 mg/kg/injection, schedule: Q01DX005 (ip), vehicle: water); 121 % of control (endpoint: mean survival time, dose: 25.0 mg/kg/injection, schedule: Q01DX007 (ip), vehicle: saline); 118 % of control (endpoint: mean survival time, dose: 25.0 mg/kg/injection, schedule: Q01DX009 (ip), vehicle: saline); 107 % of control (endpoint: mean survival time, dose: 25.0 mg/kg/injection, schedule: Q03DX003 (ip), vehicle: saline); 107 % of control (endpoint: mean survival time, dose: 25.0 mg/kg/injection, schedule: Q04DX003 (ip), vehicle: saline). The T/C reads like this: (endpoint: mean survival time, dose: 30.0 mg/kg/injection, schedule: Q01DX005 (ip), vehicle: water) 106 % of control; (endpoint: mean survival time, dose: 50.0 mg/kg/injection, schedule: Q03DX003 (ip), vehicle: saline) 112 % of control; (endpoint: mean survival time, dose: 50.0 mg/kg/injection, schedule: Q04DX003 (ip), vehicle: saline) 114 % of control; (endpoint: mean survival time, dose: 100.0 mg/kg/injection, schedule: Q01DX007 (ip), vehicle: saline) 163 % of control; (endpoint: mean survival time, dose: 100.0 mg/kg/injection, schedule: Q01DX009 (ip), vehicle: saline) 171 % of control; (endpoint: mean survival time, dose: 120.0 mg/kg/injection, schedule: Q01DX005 (ip), vehicle: water) 110 % of control. For the same compound, the T/C is 116 % of control (endpoint: median survival time, dose: 6.25 mg/kg/injection, schedule: Q01DX009 (ip), vehicle: water); 121 % of control (endpoint: median survival time, dose: 12.5 mg/kg/injection, schedule: Q01DX009 (ip), vehicle: water); 114 % of control (endpoint: median survival time, dose: 25.0 mg/kg/injection, schedule: Q01DX009 (ip), vehicle: saline with Tween-80); 116 % of control and 120 % of control and 100 % of control (endpoint: median survival time, dose: 25.0 mg/kg/injection, schedule: Q01DX009 (ip), vehicle: saline); 165 % of control (endpoint: median survival time, dose: 50.0 mg/kg/injection, schedule: Q01DX009 (ip), vehicle: water); 198 % of control (endpoint: median survival time, dose: 100.0 mg/kg/injection, schedule: Q01DX009 (ip), vehicle: saline with Tween-80). In addition, the T/C is, setting by setting: (endpoint: median survival time, dose: 100.0 mg/kg/injection, schedule: Q01DX009 (ip), vehicle: water) 112 % of control; (endpoint: median survival time, dose: 200.0 mg/kg/injection, schedule: Q01DX009 (ip), vehicle: saline with Tween-80) 118 % of control.
For `O=c1ccnc2cc[nH]n12`, the T/C was 104 % of control (endpoint: median survival time, dose: 50.0 mg/kg/injection, schedule: Q01DX005 (ip), vehicle: saline); 101 % of control (endpoint: median survival time, dose: 100.0 mg/kg/injection, schedule: Q01DX005 (ip), vehicle: saline); 101 % of control (endpoint: median survival time, dose: 200.0 mg/kg/injection, schedule: Q01DX005 (ip), vehicle: saline).
Turning to `CCOC(=O)c1ccc(NNS(=O)(=O)c2cccc(N)c2)cc1`, the T/C is 97 % of control (endpoint: mean survival time, dose: 100.0 mg/kg/injection, schedule: Q01DX009 (ip), vehicle: Klucel (hydroxypropylcellulose) (HPC)); 96 % of control (endpoint: mean survival time, dose: 100.0 mg/kg/injection, schedule: Q04DX003 (ip), vehicle: saline with Tween-80); 93 % of control (endpoint: mean survival time, dose: 200.0 mg/kg/injection, schedule: Q01DX009 (ip), vehicle: Klucel (hydroxypropylcellulose) (HPC)); 101 % of control (endpoint: mean survival time, dose: 200.0 mg/kg/injection, schedule: Q04DX003 (ip), vehicle: saline with Tween-80); 101 % of control (endpoint: mean survival time, dose: 400.0 mg/kg/injection, schedule: Q01DX009 (ip), vehicle: Klucel (hydroxypropylcellulose) (HPC)); 95 % of control (endpoint: mean survival time, dose: 400.0 mg/kg/injection, schedule: Q04DX003 (ip), vehicle: saline with Tween-80).
With `CSc1nc(NC2OCC(O)C(O)C2O)c(I)c(=O)[nH]1` (stereo not drawn), the T/C runs as follows: (endpoint: median survival time, dose: 12.5 mg/kg/injection, schedule: Q01DX005 (ip), vehicle: saline with Tween-80) 100 % of control; (endpoint: median survival time, dose: 25.0 mg/kg/injection, schedule: Q01DX005 (ip), vehicle: saline with Tween-80) 100 % of control; (endpoint: median survival time, dose: 50.0 mg/kg/injection, schedule: Q01DX005 (ip), vehicle: saline with Tween-80) 103 % of control; (endpoint: median survival time, dose: 100.0 mg/kg/injection, schedule: Q01DX005 (ip), vehicle: saline with Tween-80) 107 % of control; (endpoint: median survival time, dose: 200.0 mg/kg/injection, schedule: Q01DX005 (ip), vehicle: saline with Tween-80) 107 % of control.
With `C=CCCCCCCCCC(=O)NC(C)COC` (stereo not drawn), the T/C reads like this: (endpoint: mean survival time, dose: 100.0 mg/kg/injection, schedule: Q01DX001 (ip), vehicle: saline with Tween-80) 107 % of control; (endpoint: mean survival time, dose: 200.0 mg/kg/injection, schedule: Q01DX001 (ip), vehicle: saline with Tween-80) 98 % of control.
Regarding `CCCNCCNc1ccc(NCCNCCC)c2c1C(=O)c1ccccc1C2=O`, the T/C (endpoint: mean survival time, dose: 4.0 mg/kg/injection, schedule: Q01DX009 (ip), vehicle: acid diluted with saline) is 100 % of control; the T/C (endpoint: mean survival time, dose: 8.0 mg/kg/injection, schedule: Q01DX009 (ip), vehicle: acid diluted with saline) was 110 % of control; the T/C (endpoint: mean survival time, dose: 16.0 mg/kg/injection, schedule: Q01DX009 (ip), vehicle: acid diluted with saline) was 110 % of control; the T/C (endpoint: mean survival time, dose: 32.0 mg/kg/injection, schedule: Q01DX009 (ip), vehicle: acid diluted with saline) was 93 % of control.
On to `COc1cccc2c1[C@H]1CO[C@H]3C4C[C@H](C(=O)O)C([C@@H](C2)N13)N4C` (stereo partly drawn), for which the T/C is 90 % of control (endpoint: median survival time, dose: 0.31 mg/kg/injection, schedule: Q01DX005 (ip), vehicle: water); 101 % of control (endpoint: median survival time, dose: 0.62 mg/kg/injection, schedule: Q01DX005 (ip), vehicle: water); 102 % of control (endpoint: median survival time, dose: 1.25 mg/kg/injection, schedule: Q01DX005 (ip), vehicle: water); 112 % of control (endpoint: median survival time, dose: 2.5 mg/kg/injection, schedule: Q01DX005 (ip), vehicle: water); 121 % of control (endpoint: median survival time, dose: 5.0 mg/kg/injection, schedule: Q01DX005 (ip), vehicle: water).
As for `CCCC(=O)O.CCCC(=O)O.CCCC(=O)O.CCCC(=O)O.[Rh].[Rh]`, the T/C reads like this: (endpoint: mean survival time, dose: 0.03 mg/kg/injection, schedule: Q01DX009 (ip), vehicle: saline + alcohol) 100 % of control and 104 % of control; (endpoint: mean survival time, dose: 0.06 mg/kg/injection, schedule: Q01DX009 (ip), vehicle: saline + alcohol) 93 % of control and 104 % of control; (endpoint: mean survival time, dose: 0.12 mg/kg/injection, schedule: Q01DX009 (ip), vehicle: saline + alcohol) 96 % of control and 110 % of control; (endpoint: mean survival time, dose: 0.25 mg/kg/injection, schedule: Q01DX009 (ip), vehicle: saline + alcohol) 100 % of control and 104 % of control; (endpoint: mean survival time, dose: 0.5 mg/kg/injection, schedule: Q01DX009 (ip), vehicle: saline + alcohol) 100 % of control and 112 % of control; (endpoint: mean survival time, dose: 1.0 mg/kg/injection, schedule: Q01DX009 (ip), vehicle: saline + alcohol) 102 % of control and 110 % of control.
As to `CCCCCCCCCCCCOP(=S)(OCC)OCC`, the T/C is, setting by setting: (endpoint: mean survival time, dose: 100.0 mg/kg/injection, schedule: Q04DX002 (ip), vehicle: saline with Tween-80) 98 % of control; (endpoint: mean survival time, dose: 200.0 mg/kg/injection, schedule: Q04DX002 (ip), vehicle: saline with Tween-80) 95 % of control; (endpoint: mean survival time, dose: 400.0 mg/kg/injection, schedule: Q04DX002 (ip), vehicle: saline with Tween-80) 91 % of control.
Regarding `OCC#CC1CCCCC1`, the T/C (endpoint: mean survival time, dose: 50.0 mg/kg/injection, schedule: Q01DX009 (ip), vehicle: saline with Tween-80) is 107 % of control; the T/C (endpoint: mean survival time, dose: 100.0 mg/kg/injection, schedule: Q01DX009 (ip), vehicle: saline with Tween-80) is 107 % of control; the T/C (endpoint: mean survival time, dose: 200.0 mg/kg/injection, schedule: Q01DX009 (ip), vehicle: saline with Tween-80) is 101 % of control.
`C[n+]1ccc(/C(=N\O)c2ccccc2)cc1`: the T/C is, setting by setting: (endpoint: mean survival time, dose: 37.5 mg/kg/injection, schedule: Q04DX003 (ip), vehicle: saline) 100 % of control; (endpoint: mean survival time, dose: 75.0 mg/kg/injection, schedule: Q01DX001 (ip), vehicle: saline) 101 % of control; (endpoint: mean survival time, dose: 75.0 mg/kg/injection, schedule: Q04DX003 (ip), vehicle: saline) 100 % of control; (endpoint: mean survival time, dose: 150.0 mg/kg/injection, schedule: Q01DX001 (ip), vehicle: saline) 97 % of control; (endpoint: mean survival time, dose: 150.0 mg/kg/injection, schedule: Q04DX003 (ip), vehicle: saline) 95 % of control.
Regarding `C=C(C)C1C2CC3(C)C4(CO4)C4OC4C3(O)C1C(=O)O2` (stereo not drawn), the T/C was 100 % of control (endpoint: median survival time, dose: 0.25 mg/kg/injection, schedule: Q01DX009 (ip), vehicle: Klucel (hydroxypropylcellulose) (HPC)); 98 % of control (endpoint: median survival time, dose: 0.5 mg/kg/injection, schedule: Q01DX009 (ip), vehicle: Klucel (hydroxypropylcellulose) (HPC)); 103 % of control (endpoint: median survival time, dose: 1.0 mg/kg/injection, schedule: Q01DX009 (ip), vehicle: Klucel (hydroxypropylcellulose) (HPC)); 97 % of control (endpoint: median survival time, dose: 2.0 mg/kg/injection, schedule: Q01DX009 (ip), vehicle: Klucel (hydroxypropylcellulose) (HPC)).
Consider `Cn1c(-c2ccccc2N=NN2CCCCC2)nc(=N)c2ccccc21`, for which the T/C is 95 % of control (endpoint: mean survival time, dose: 6.25 mg/kg/injection, schedule: Q01DX005 (ip), vehicle: water) and 95 % of control (endpoint: mean survival time, dose: 12.5 mg/kg/injection, schedule: Q01DX005 (ip), vehicle: water).

The record behind these values is PubChem BioAssay AID256 (DTP/NCI, 2004).
